Experimental data taken from BindingDB's records for doi:10.1021/acs.jmedchem.7b00315 (St. John'S University, 2018).

Assay: Inhibition of GP2b/3a in human platelet-rich plasma assessed as reduction in collagen-induced platelet aggregation preincubated for 1 min followed by collagen addition by aggregometric analysis

Row | IC50 | Compound
1 | 50 nM | CCOC(=O)CC1CCN(C(=O)CC(CC)NC(=O)c2ccc(C(=N)N3CCSC3)cc2F)CC1 (stereo not drawn)
2 | 3100 nM | CCOC(=O)CC1CCN(C(=O)C(C)(C)[C@H](CC)NC(=O)c2ccc(C(=N)N3CCSC3)cc2F)CC1
3 | 22 nM | CCOC(=O)CC1CCN(C(=O)C(C)(C)[C@@H](CC)NC(=O)c2ccc(C(=N)N3CCSC3)cc2F)CC1 [(1-{3-[2-Fluoro-4-(imino-thiazolidin-3-yl-methyl)-benzoylamino]-2,2-dimethyl-pentanoyl}-piperidin-4-yl)-acetic acid ethyl ester(NSL-96184)]
